The values below come from patent US11466024B2, “Bicylic compound acting as an inhibitor” (CHIA TAI TIANQING PHARMACEUTICAL GROUP CO., LTD., priority 2017, dated 2022).

For the series, the target named is hERG potassium channel (Homo sapiens, UniProt Q12809). The series can be described thus: in vitro. The conditions noted are these: human. As for the experimental part:
CHO-hERG cells (from Shanghai Institute of Materia Medica, Chinese Academy of Sciences) were cultured in a 175 cm^2 culture flask. When the cell density reached 60% to 80%, the culture medium was removed, the cells were washed once with 7 mL of PBS, and then 3 mL of Detachin was added for cell detachment. After complete cell detachment, 7 mL of culture medium were added for neutralization, the mixture was then centrifuged, the supernatant was aspirated, and another 5 mL of culture medium was added for re-suspension, so as to ensure that the cell density was 2×10^6/mL to 5×10^6/mL.
The single-cell giga-seal and the formation of whole-cell mode were both completed automatically by a Q patch instrument. After a whole-cell recording mode was achieved, the cells were clamped at −80 mV, exposed to a front voltage of −50 mV for 50 ms prior to a depolarizing stimulus (5 s, +40 mV), and then repolarized to −50 mV for 5 s, followed by a recovery to −80 mV. This voltage stimulation was applied every 15 s and recorded for 2 minutes, and the extracellular fluid was then administered, followed by a record lasting for 5 minutes. Thereafter, the administration process was started. Starting from the lowest test concentration, the compounds were administered at each test concentration and the process lasted for 2.5 minutes. […] At least 3 cells (n≥3) were tested at each concentration.
20 mM stock solution of the compound was diluted with the extracellular fluid, and 5 μL of the 20 mM stock solution of the compound was taken, added to 2495 μL of the extracellular fluid, and diluted by 500 times to 40 μM. Thereafter, the resulting mixture was serially and successively diluted by 3 times in an extracellular fluid containing 0.2% DMSO, so as to obtain a final concentration to be tested.
The experimental data was analyzed by XLFit software.

Chain of hERG potassium channel (Q12809 whole entry): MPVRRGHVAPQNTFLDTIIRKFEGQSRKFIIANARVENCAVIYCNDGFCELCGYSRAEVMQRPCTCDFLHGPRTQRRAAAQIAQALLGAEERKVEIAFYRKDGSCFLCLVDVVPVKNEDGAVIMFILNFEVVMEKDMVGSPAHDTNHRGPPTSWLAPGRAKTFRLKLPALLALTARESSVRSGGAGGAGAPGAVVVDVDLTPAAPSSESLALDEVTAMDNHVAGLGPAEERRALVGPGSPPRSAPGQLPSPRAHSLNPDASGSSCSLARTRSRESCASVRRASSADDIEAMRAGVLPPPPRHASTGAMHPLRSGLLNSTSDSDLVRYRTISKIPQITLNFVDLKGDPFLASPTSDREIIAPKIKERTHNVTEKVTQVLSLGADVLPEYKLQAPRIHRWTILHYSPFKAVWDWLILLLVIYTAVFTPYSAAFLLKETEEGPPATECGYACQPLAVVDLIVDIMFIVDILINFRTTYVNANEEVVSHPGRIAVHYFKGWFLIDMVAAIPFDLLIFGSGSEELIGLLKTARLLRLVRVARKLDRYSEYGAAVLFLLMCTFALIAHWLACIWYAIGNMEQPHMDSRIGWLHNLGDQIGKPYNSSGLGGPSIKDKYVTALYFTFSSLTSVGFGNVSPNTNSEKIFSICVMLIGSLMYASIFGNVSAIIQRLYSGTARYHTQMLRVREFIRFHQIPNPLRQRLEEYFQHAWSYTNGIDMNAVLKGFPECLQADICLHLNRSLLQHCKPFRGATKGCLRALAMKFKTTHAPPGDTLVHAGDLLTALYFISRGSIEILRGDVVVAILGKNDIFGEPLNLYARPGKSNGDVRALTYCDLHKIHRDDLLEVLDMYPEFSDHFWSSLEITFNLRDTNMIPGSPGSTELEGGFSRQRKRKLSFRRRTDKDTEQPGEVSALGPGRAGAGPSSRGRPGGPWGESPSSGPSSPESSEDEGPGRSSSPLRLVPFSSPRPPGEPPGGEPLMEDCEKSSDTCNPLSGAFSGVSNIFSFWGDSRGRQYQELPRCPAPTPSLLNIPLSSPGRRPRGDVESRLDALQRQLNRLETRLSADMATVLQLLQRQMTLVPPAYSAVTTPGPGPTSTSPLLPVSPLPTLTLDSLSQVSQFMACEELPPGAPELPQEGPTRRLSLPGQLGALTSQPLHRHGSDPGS

`COc1cc(N)c(Cl)cc1C(=O)NC1CCN(CCCOc2ccc(F)cc2)CC1OC` (stereo not shown) [Cisapride, reference compound] displayed an inhibition at 2.5 min, 40 μM of 89.6%.
